Assay results taken from patent publication US20210309649A1, “SUBSTITUTED GLUTARIMIDE DERIVATIVES” (BASF SE, priority 2018, published 2021).

Assays:
Assay type in all cases: in vivo
Megoura viciae = assay: Vetch aphid (Megoura viciae) leaf disk test; details: foliar, 120 h, read-out: mortality in comparison with untreated controls
Method: For evaluating control of vetch aphid (Megoura viciae) through contact or systemic means the test unit consisted of 24-well-microtiter plates containing broad bean leaf disks.
The compounds were formulated using a solution containing 75% v/v water and 25% v/v DMSO. Different concentrations of formulated compounds were sprayed onto the leaf disks at 2.5 μl, using a custom built micro atomizer, at two replications.
After application, the leaf disks were air-dried and 5-8 adult aphids placed on the leaf disks inside the microtiter plate wells. The aphids were then allowed to suck on the treated leaf disks and incubated at about 23±1° C. and about 50±5% relative humidity for 5 days. Aphid mortality and fecundity was then visually assessed.

Heliothis virescens = assay: Tobacco budworm (Heliothis virescens) insect diet test; details: 120 h, read-out: mortality in comparison with untreated controls
Method: For evaluating control of tobacco budworm (Heliothis virescens) the test unit consisted of 96-well-microtiter plates containing an insect diet and 15-25 H. virescens eggs.
The compounds were formulated using a solution containing 75% v/v water and 25% v/v DMSO. Different concentrations of formulated compounds were sprayed onto the insect diet at 10 μl, using a custom built micro atomizer, at two replications.
After application, microtiter plates were incubated at about 28±1° C. and about 80±5% relative humidity for 5 days. Egg and larval mortality was then visually assessed.

Anthonomus grandis = assay: Boll weevil (Anthonomus grandis) insect diet test; details: 120 h, read-out: mortality in comparison with untreated controls
Method: For evaluating control of boll weevil (Anthonomus grandis) the test unit consisted of 96-well-microtiter plates containing an insect diet and 5-10 A. grandis eggs.
The compounds were formulated using a solution containing 75% v/v water and 25% v/v DMSO. Different concentrations of formulated compounds were sprayed onto the insect diet at 5 μl, using a custom built micro atomizer, at two replications.
After application, microtiter plates were incubated at about 25±1° C. and about 75±5% relative humidity for 5 days. Egg and larval mortality was then visually assessed.

Myzus persicae = assay: Green peach aphid (Myzus persicae) systemic artificial diet test; details: 72 h, read-out: mortality in comparison with untreated controls
Description: For evaluating control of green peach aphid (Myzus persicae) through systemic means the test unit consisted of 96-well-microtiter plates containing liquid artificial diet under an artificial mem brane.
The compounds were formulated using a solution containing 75% v/v water and 25% v/v DMSO. Different concentrations of formulated compounds were pipetted into the aphid diet, using a custom built pipetter, at two replications.
After application, 5-8 adult aphids were placed on the artificial membrane inside the microtiter plate wells. The aphids were then allowed to suck on the treated aphid diet and incubated at about 23±1° C. and about 50±5% relative humidity for 3 days. Aphid mortality and fecundity was then visually assessed.

Nezara viridula = assay: Green soldier stink bug (Nezara viridula) soybean pod spray test; details: 120 h, read-out: mortality in comparison with untreated controls
Method: The active compound was dissolved at the desired concentration in a mixture of 1:1 (vol:vol) distilled water:acetone. Surfactant (Kinetic HV) was added at a rate of 0.01% (vol/vol). The test solution was prepared at the day of use. Soybean pods were placed in glass Petri dishes lined with moist filter paper and inoculated with ten late 3rd instar N. viridula. Using a hand atomizer, approximately 2 ml solution is sprayed into each Petri dish. Assay arenas were kept at about 25° C. Percent mortality was recorded after 5 days.

Tetranychus kanzawai = assay: Red spider mite (Tetranychus kanzawai) cowpea bean spray test; details: 72 h, read-out: mortality in comparison with untreated controls
Method: The active compound was dissolved at the desired concentration in a mixture of 1:1 (vol:vol) distilled water:acetone. Add surfactant (Kinetic HV) was added at a rate of 0.01% (vol/vol). The test solution was prepared at the day of use.
Potted cowpea beans of 4-5 days of age were cleaned with tap water and sprayed with 1-2 ml of the test solution using air driven hand atomizer. The treated plants were allowed to air dry and afterwards inoculated with 30 or more mites by clipping a cassava leaf section from rearing population. Treated plants were placed inside a holding room at about 25-27° C. and about 50-60% relative humidity. Percent mortality was assessed 72 hours after treatment.

Nephotettix virescens = assay: Rice green leafhopper (Nephotettix virescens) rice seedling spray test; details: 72 h, read-out: mortality in comparison with untreated controls
Method: Rice seedlings were cleaned and washed 24 hours before spraying. The active compounds were formulated in 1:1 acetone:water (vol:vol), and 0.01% vol/vol surfactant (Kinetic HV) was added. Potted rice seedlings were sprayed with 5-6 ml test solution, air dried, covered with Mylar cages and inoculated with 10 adults. Treated rice plants were kept at about 28-29° C. and relative humidity of about 50-60%. Percent mortality was recorded after 72 hours.

Dichromothrips corbetti = assay: Orchid thrips (Dichromothrips corbetti) floral-immersion test; details: 72 h, read-out: mortality in comparison with untreated controls
Method: Dichromothrips corbetti adults used for bioassay were obtained from a colony maintained continuously under laboratory conditions. For testing purposes, the test compound is diluted in a 1:1 mixture of acetone:water (vol:vol), plus Kinetic HV at a rate of 0.01% v/v.
Thrips potency of each compound was evaluated by using a floral-immersion technique. All petals of individual, intact orchid flowers were dipped into treatment solution and allowed to dry in Petri dishes. Treated petals were placed into individual re-sealable plastic along with about 20 adult thrips. All test arenas were held under continuous light and a temperature of about 28° C. for duration of the assay. After 3 days, the numbers of live thrips were counted on each petal. The percent mortality was recorded 72 hours after treatment.

Spodoptera eridania = assay: Southern armyworm (Spodoptera eridania) lima bean foliar spray test; details: 96 h, read-out: mortality in comparison with untreated controls
Method: The active compounds were formulated in cyclohexanone as a 10,000 ppm solution supplied in tubes. The tubes were inserted into an automated electrostatic sprayer equipped with an atomizing nozzle and they served as stock solutions for which lower dilutions were made in 50% acetone:50% water (v/v). A nonionic surfactant (Kinetic®) was included in the solution at a volume of 0.01% (v/v).
Lima bean plants (variety Sieva) were grown 2 plants to a pot and selected for treatment at the 1st true leaf stage. Test solutions were sprayed onto the foliage by an automated electrostatic plant sprayer equipped with an atomizing spray nozzle. The plants were dried in the sprayer fume hood and then removed from the sprayer. Each pot was placed into perforated plastic bags with a zip closure. About 10 to 11 armyworm larvae were placed into the bag and the bags zipped closed. Test plants were maintained in a growth room at about 25° C. and about 20-40% relative humidity for 4 days, avoiding direct exposure to fluorescent light (24 hour photoperiod) to prevent trapping of heat inside the bags. Mortality and reduced feeding were assessed 4 days after treatment, compared to untreated control plants.

Plutella xylostella = assay: Diamond back moth (Plutella xylostella) cabbage leaf dip test; details: foliar, 72 h, read-out: mortality in comparison with untreated controls
Method: The active compound was dissolved at the desired concentration in a mixture of 1:1 (vol:vol) distilled water:aceteone. Surfactant (Kinetic HV) was added at a rate of 0.01% (vol/vol). The test solution was prepared at the day of use.
Leaves of cabbage were dipped in test solution and air-dried. Treated leaves were placed in petri dishes lined with moist filter paper and inoculated with ten 3rd instar larvae. Mortality was recorded 72 hours after treatment. Feeding damages were also recorded using a scale of 0-100%.

Euschistus heros = assay: Neotropical brown stink bug (Euschistus heros) soybean pod spray test; details: 120 h, read-out: mortality in comparison with untreated controls
Method: (§1) The active compound was dissolved at the desired concentration in a mixture of 1:1 (vol:vol) distilled water:acetone. Surfactant (Kinetic HV) was added at a rate of 0.01% (vol/vol). The test solution was prepared at the day of use.
Soybean pods were placed in microwavable plastic cups and inoculated with ten adult stage E. heros. Using a hand atomizer, approximately 1 ml solution is sprayed into each cup, insects and food present. A water source was provided (cotton wick with water). Each treatment was replicated 2-fold. Assay arenas were kept at about 25° C. Percent mortality was recorded after 5 days.

Halyomorpha halys = assay: Brown marmorated stink bug (Halyomorpha halys) spray test; details: in Glycine max, 120 h, read-out: mortality in comparison with untreated controls
Method: as §1
Row peanuts and soybean seeds were placed into microwavable plastic cups and inoculated with five adult stage H. halys. Using a hand atomizer, approximately 1 ml solution is sprayed into each cup, insects and food present. A water source was provided (cotton wick with water).
Each treatment is replicated 4-fold. Assay arenas are kept at about 25° C. Percent mortality was recorded after 5 days.

CN1C(=O)CC[C@@H](NC(=O)c2ccc(C3=NOC(c4cc(Cl)c(F)c(Cl)c4)(C(F)(F)F)C3)cc2Cl)C1=O (stereo partly drawn) [Compound 1-1, 2-chloro-4[5-(3,5-dichloro-4-fluoro-phenyl)-5-(trifluoromethyl)-4H-isoxazol-3-yl]-N-[(3R)-1-methyl-2,6-dioxo-3-piperidyl]benzamide]
> 75%: mortality at 2500 ppm (Megoura viciae) | mortality at 2500 ppm (Heliothis virescens) | mortality at 2500 ppm (Anthonomus grandis) | mortality at 2500 ppm (Myzus persicae) | mortality at 300 ppm (Nezara viridula) | mortality at 300 ppm (Tetranychus kanzawai) | mortality at 300 ppm (Nephotettix virescens) | mortality at 300 ppm (Dichromothrips corbetti) | mortality at 10 ppm (Spodoptera eridania) | mortality at 300 ppm (Plutella xylostella) | mortality at 500 ppm (Euschistus heros) | mortality at 100 ppm (Halyomorpha halys)

Cc1cc(C2=NOC(c3cc(Cl)cc(Cl)c3)(C(F)(F)F)C2)ccc1C(=O)N[C@@H]1CCC(=O)N(CC(F)F)C1=O (stereo partly drawn) [Compound 1-18, 4-[5-(3,5-dichlorophenyl)-5-(trifluoromethyl)-4H-isoxazol-3-yl]-N-[(3R)-1-(2,2-difluoroethyl)-2,6-dioxo-3-piperidyl]-2-methyl-benzamide]
> 75%: mortality at 2500 ppm (Megoura viciae) | mortality at 2500 ppm (Heliothis virescens) | mortality at 2500 ppm (Anthonomus grandis) | mortality at 2500 ppm (Myzus persicae) | mortality at 300 ppm (Nezara viridula) | mortality at 300 ppm (Tetranychus kanzawai) | mortality at 300 ppm (Nephotettix virescens) | mortality at 300 ppm (Dichromothrips corbetti) | mortality at 300 ppm (Plutella xylostella) | mortality at 500 ppm (Euschistus heros) | mortality at 100 ppm (Halyomorpha halys)
